Laboratory results taken from publication PMC9090415, “Discovery of small molecule inhibitors of Plasmodium falciparum apicoplast DNA polymerase” (Journal of Enzyme Inhibition and Medicinal Chemistry, 2022).

Target: P. falciparum apicoplast DNA polymerase (Pf-apPOL) (Plasmodium falciparum, UniProt Q8ILY1)
Test: Fluorescence-based high-throughput DNA polymerase assay (molecular beacon), primary screen and dose-response
Type: biochemical
Method: The HT assay employs a molecular beacon, a stem-loop DNA template with a Cy3 dye and the Black Hole Quencher on the 3′ and 5′ ends of the DNA, respectively. Pf-apPOL concentration is based on a calculated absorptivity of ε280 = 56750 M^−1 cm^−1. Reactions were carried out at 25 °C, using Corning 3575 […] (well-volume, 20 µL). Assays testing for compound inhibition composed of reaction buffer (pH 7.9 in 50 mM potassium acetate, 20 mM Tris-acetate and 10 mM magnesium acetate), Pf-apPOL (20 nM), DNA substrate (20 nM), dNTPs (6 µM), and compound (10 µM in DMSO). The DNA and nucleotide substrates (dNTPs) were at concentrations of 20 nM and 6 µM, respectively, in the assay. Pf-apPOL was incubated in the reaction buffer with dNTPs and the compound of interest (10 µM, in the assay) at 25 °C for 10 min. The DNA substrate was then added and the reaction was allowed to proceed for 90 min at 25 °C.
Each assay plate contained 16 negative controls (no Pf-apPOL, DMSO present) and 16 positive controls (Pf-apPOL present, no DMSO). The fluorescence of each well was determined using a BioTek Synergy Neo fluorescence plate reader using excitation and emission wavelengths of 555 and 570 nm, respectively.
In the above, Min is the average of fluorescence emission of the negative controls (substrate only), Max the average fluorescence emission from the positive controls (enzyme + substrate), and Test the emission from the assays in the presence of compounds (enzyme + compound + substrates). […] […] The IC50 of each compound was determined using Equation (2): (2) IC50= Vmax/(1+ (I/IC50)^n)
In the above, n measures cooperativity, with n > 1 indicating synergistic binding of more than a single molecule of the compound.
To identify apPOL inhibitors we utilised our previously developed high-throughput DNA polymerase assay. The HT assay is based on a molecular beacon DNA template that forms a stem-loop with a Cy3 dye and the Black Hole Quencher on the 3′ and 5′ ends of the DNA, respectively. DNA polymerase activity extends an annealed primer through the stem region, displacing the fluorophore from the quencher, thereby increasing its fluorescence (Figure 1(A)). The assay accurately recapitulates the kinetic behaviour of apPOL, as measured through more conventional low-throughput gel-based assays. The Z′ factor for the assay described here was 0.9 across all plates (data not shown).
Figure 1. High-throughput screening. (A) The fluorescent-based DNA polymerase assay used to screen the compound libraries. The DNA template strand is a hairpin loop with a primer annealed to the loop. The 3’ end of the primer is 11 bases away from the 6 bp duplex. Strand displacement activity of the DNA polymerase separates the Cy3 dye from the Black hole quencher leading to an increase in fluorescent signal. (B) The high-throughput assay workflow. The DNA polymerase is incubated with […] compound for 10 min prior to addition of the hairpin substrate. The reaction is quenched at 3 different time points and the fluorescent signal is measured and % inhibition is determined using the provided equation.

Chain of P. falciparum apicoplast DNA polymerase (Pf-apPOL) (Q8ILY1 entry or part of it): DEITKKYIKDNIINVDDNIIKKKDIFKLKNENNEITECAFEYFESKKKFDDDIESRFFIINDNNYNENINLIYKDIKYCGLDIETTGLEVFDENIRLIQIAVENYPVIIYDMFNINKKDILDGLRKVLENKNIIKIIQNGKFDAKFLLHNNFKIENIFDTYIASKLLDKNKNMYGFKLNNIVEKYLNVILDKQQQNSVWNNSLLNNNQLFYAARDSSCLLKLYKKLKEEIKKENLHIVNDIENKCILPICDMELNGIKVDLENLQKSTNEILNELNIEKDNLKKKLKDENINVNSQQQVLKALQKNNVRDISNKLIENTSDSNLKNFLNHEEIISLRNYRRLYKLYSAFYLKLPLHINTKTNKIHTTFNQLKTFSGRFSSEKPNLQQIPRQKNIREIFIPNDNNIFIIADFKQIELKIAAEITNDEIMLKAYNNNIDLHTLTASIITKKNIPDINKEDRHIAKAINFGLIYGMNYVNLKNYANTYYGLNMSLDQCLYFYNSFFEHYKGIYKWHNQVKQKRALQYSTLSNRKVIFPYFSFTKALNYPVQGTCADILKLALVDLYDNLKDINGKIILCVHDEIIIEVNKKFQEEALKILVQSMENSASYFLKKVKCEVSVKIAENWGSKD

For O=[N+]([O-])c1cc2c(cc1CN1CCCCCC1)OCO2 [KU0004987], the “DNA Pol” value ('DNA Pol'; screening value, unit not given; 90 min, 10 µM) was 33, the “% inhibition Apo pol 10'” value (DRC-1; 10'; concentration 2.5) was 6.817% and the “% inhibition Apo pol 10'” value (DRC-1; 10'; concentration 5) was 8.194%. The “% inhibition Apo pol 10'” value (DRC-1; 10'; concentration 10) was 20.8655%, the “% inhibition Apo pol 10'” value (DRC-1; 10'; concentration 20) was 39.2503% and the “% inhibition Apo pol 10'” value (DRC-1; 10'; concentration 40) was 59.1088%. For the same molecule, the “% inhibition Apo pol 10'” value (DRC-1; 10'; concentration 80) was 75.1762%, the “% inhibition Apol 90'” value (DRC-1; 90'; concentration 2.5) was 1.395% and the “% inhibition Apol 90'” value (DRC-1; 90'; concentration 5) was -0.8625%. For the same molecule, the “% inhibition Apol 90'” value (DRC-1; 90'; concentration 10) was 9.436%, the “% inhibition Apol 90'” value (DRC-1; 90'; concentration 20) was 21.3205% and the “% inhibition Apol 90'” value (DRC-1; 90'; concentration 40) was 39.3126%. For the same molecule, the “% inhibition Apol 90'” value (DRC-1; 90'; concentration 80) was 55.7488%, the “% inhibition apPOL 180'” value (DRC-1; 180'; concentration 2.5) was -4.392% and the “% inhibition apPOL 180'” value (DRC-1; 180'; concentration 5) was -7.266%. The “% inhibition apPOL 180'” value (DRC-1; 180'; concentration 10) was 1.794%, the “% inhibition apPOL 180'” value (DRC-1; 180'; concentration 20) was 10.6731% and the “% inhibition apPOL 180'” value (DRC-1; 180'; concentration 40) was 27.0699%. For the same molecule, the “% inhibition apPOL 180'” value (DRC-1; 180'; concentration 80) was 43.7361%, the “% inhibition Apo pol 5'” value (DRC-2, 5', concentration 2.5) was 17% and the “% inhibition Apo pol 5'” value (DRC-2, 5', concentration 5) was 20%. The “% inhibition Apo pol 5'” value (DRC-2, 5', concentration 10) was 32%, the “% inhibition Apo pol 5'” value (DRC-2, 5', concentration 20) was 39% and the “% inhibition Apo pol 5'” value (DRC-2, 5', concentration 40) was 46%. For the same molecule, the “% inhibition Apo pol 5'” value (DRC-2, 5', concentration 80) was 49%, the “% inhibition Apol 40'” value (DRC-2, 40', concentration 2.5) was 13% and the “% inhibition Apol 40'” value (DRC-2, 40', concentration 5) was 15%. The “% inhibition Apol 40'” value (DRC-2, 40', concentration 10) was 22%, the “% inhibition Apol 40'” value (DRC-2, 40', concentration 20) was 29% and the “% inhibition Apol 40'” value (DRC-2, 40', concentration 40) was 39%. For the same molecule, the “% inhibition Apol 40'” value (DRC-2, 40', concentration 80) was 49%, the “% inhibition ApPOL 90'” value (DRC-2, 90', concentration 2.5) was 9% and the “% inhibition ApPOL 90'” value (DRC-2, 90', concentration 5) was 9%. For the same molecule, the “% inhibition ApPOL 90'” value (DRC-2, 90', concentration 10) was 16%, the “% inhibition ApPOL 90'” value (DRC-2, 90', concentration 20) was 23% and the “% inhibition ApPOL 90'” value (DRC-2, 90', concentration 40) was 33%. The “% inhibition ApPOL 90'” value (DRC-2, 90', concentration 80) was 45%, the “% inhibition apPOL 180'” value (DRC-2, 180', concentration 2.5) was 0.644% and the “% inhibition apPOL 180'” value (DRC-2, 180', concentration 5) was 0.589%. The “% inhibition apPOL 180'” value (DRC-2, 180', concentration 10) was 6%, the “% inhibition apPOL 180'” value (DRC-2, 180', concentration 20) was 10% and the “% inhibition apPOL 180'” value (DRC-2, 180', concentration 40) was 22%. For the same molecule, the “% inhibition apPOL 180'” value (DRC-2, 180', concentration 80) was 36%, the “% inhibition ApPOL 90'” value (conc 2.5 (unit not given); 90'; DRC-2) was 9% and the “% inhibition ApPOL 90'” value (conc 5 (unit not given); 90'; DRC-2) was 9%. For the same molecule, the “% inhibition Apol 40'” value (conc 10 (unit not given); 40'; DRC-2) was 22%, the “% inhibition Apo pol 5'” value (conc 20 (unit not given); 5'; DRC-2) was 39% and the “% inhibition Apol 40'” value (conc 40 (unit not given); 40'; DRC-2) was 39%. For the same molecule, the “% inhibition apPOL 180'” value (conc 40 (unit not given); 180'; DRC-2) was 22%, the “% inhibition Apo pol 5'” value (conc 80 (unit not given); 5'; DRC-2) was 49% and the “% inhibition Apol 40'” value (conc 80 (unit not given); 40'; DRC-2) was 49%. For the same molecule, the “DNA Pol” value (primary screen hit value, DNA Pol (186 hits); 90 min, 10 µM) was 33.

With CCCCCCCCCCCCCCCCCC(=O)CCN(C)C [KU0271928] the “% inhibition Apo pol 10'” value (DRC-1; 10'; concentration 2.5) was 4.376%, the “% inhibition Apo pol 10'” value (DRC-1; 10'; concentration 5) was 8.002% and the “% inhibition Apo pol 10'” value (DRC-1; 10'; concentration 10) was 14.7164%. The “% inhibition Apo pol 10'” value (DRC-1; 10'; concentration 20) was 22.8957%, the “% inhibition Apo pol 10'” value (DRC-1; 10'; concentration 40) was 29.808% and the “% inhibition Apo pol 10'” value (DRC-1; 10'; concentration 80) was 46.1524%. The “% inhibition Apol 90'” value (DRC-1; 90'; concentration 2.5) was 3.047%, the “% inhibition Apol 90'” value (DRC-1; 90'; concentration 5) was 4.9355% and the “% inhibition Apol 90'” value (DRC-1; 90'; concentration 10) was 15.0466%. The “% inhibition Apol 90'” value (DRC-1; 90'; concentration 20) was 24.954%, the “% inhibition Apol 90'” value (DRC-1; 90'; concentration 40) was 42.2957% and the “% inhibition Apol 90'” value (DRC-1; 90'; concentration 80) was 71.469%. For the same molecule, the “% inhibition apPOL 180'” value (DRC-1; 180'; concentration 2.5) was 2.105%, the “% inhibition apPOL 180'” value (DRC-1; 180'; concentration 5) was 0.02519% and the “% inhibition apPOL 180'” value (DRC-1; 180'; concentration 10) was 10.3787%. For the same molecule, the “% inhibition apPOL 180'” value (DRC-1; 180'; concentration 20) was 23.1469%, the “% inhibition apPOL 180'” value (DRC-1; 180'; concentration 40) was 44.4373% and the “% inhibition apPOL 180'” value (DRC-1; 180'; concentration 80) was 80.1406%. For the same molecule, the “% inhibition Apol 40'” value (DRC-2, 40', concentration 5 (unit not given)) was 4%, the “% inhibition Apol 40'” value (DRC-2, 40', concentration 20 (unit not given)) was 13% and the “% inhibition apPOL 180'” value (DRC-2, 180', concentration 5 (unit not given)) was 4%. The “% inhibition apPOL 180'” value (DRC-2, 180', concentration 20 (unit not given)) was 13%, the “% inhibition Apo pol 5'” value (DRC-2; 5'; concentration 2.5) was 0.736% and the “% inhibition Apo pol 5'” value (DRC-2; 5'; concentration 5) was 1.37%. For the same molecule, the “% inhibition Apo pol 5'” value (DRC-2; 5'; concentration 10) was 2.68%, the “% inhibition Apo pol 5'” value (DRC-2; 5'; concentration 20) was 5.52% and the “% inhibition Apo pol 5'” value (DRC-2; 5'; concentration 40) was 18%. For the same molecule, the “% inhibition Apo pol 5'” value (DRC-2; 5'; concentration 80) was 37%, the “% inhibition Apol 40'” value (DRC-2; 40'; concentration 2.5) was 2.22% and the “% inhibition Apol 40'” value (DRC-2; 40'; concentration 5) was 4%. The “% inhibition Apol 40'” value (DRC-2; 40'; concentration 10) was 4.59%, the “% inhibition Apol 40'” value (DRC-2; 40'; concentration 20) was 13% and the “% inhibition Apol 40'” value (DRC-2; 40'; concentration 40) was 28%. The “% inhibition Apol 40'” value (DRC-2; 40'; concentration 80) was 61%, the “% inhibition ApPOL 90'” value (DRC-2; 90'; concentration 2.5) was 1.86% and the “% inhibition ApPOL 90'” value (DRC-2; 90'; concentration 5) was 3.32%. The “% inhibition ApPOL 90'” value (DRC-2; 90'; concentration 10) was 2.69%, the “% inhibition ApPOL 90'” value (DRC-2; 90'; concentration 20) was 12% and the “% inhibition ApPOL 90'” value (DRC-2; 90'; concentration 40) was 30%. The “% inhibition ApPOL 90'” value (DRC-2; 90'; concentration 80) was 67%, the “% inhibition apPOL 180'” value (DRC-2; 180'; concentration 2.5) was 1.53% and the “% inhibition apPOL 180'” value (DRC-2; 180'; concentration 5) was 4%. For the same molecule, the “% inhibition apPOL 180'” value (DRC-2; 180'; concentration 10) was 2.45%, the “% inhibition apPOL 180'” value (DRC-2; 180'; concentration 20) was 13% and the “% inhibition apPOL 180'” value (DRC-2; 180'; concentration 40) was 31%. For the same molecule, the “% inhibition apPOL 180'” value (DRC-2; 180'; concentration 80) was 73%, the “DNA Pol” value (primary screen value of the 186 hits; unit not given; 90 min, 10 µM) was 46 and the “DNA Pol” value (primary screen value, head "DNA Pol", unit not given; 90 min, 10 µM) was 46.
